Our source for the IC50 values is US20230339952A1, “MACROCYCLIC HETEROCYCLES AND USES THEREOF” (Kumquat Biosciences Inc., priority 2022, published 2023).

The target in experiment [1] is SOS1 (Homo sapiens (Human), UniProt Q07889). As to the kind of experiment: Ras-SOS interaction assay (HTRF), K-Ras G13D utilized. Format: binding. The conditions noted are these: K-Ras G13D. (In TR-FRET formats the signal depends on donor and acceptor labels being close together.)
The subject of experiment [2] is NCI-H1975 (ATCC CRL-5908) cell line comprising an EGFR T790M L858R double mutation. The experiment is described as follows: EGFR-SOS cellular inhibition assay (CellTiter-Glo cell proliferation). It counts as cell-based. As to conditions: Homo sapiens. A general note: Cellular ATP, detected with luciferase, serves as a proxy for viable cell number.
Experimental: A CellTiter-Glo (CTG) luminescent based assay (Promega) is used to assess growth of the cells, as a measurement of the ability of the compounds herein to inhibit EGFR signaling in the cells. […] The day after plating, cells are treated with a dilution series (e.g., a 9 point 3-fold dilution series) of the compounds herein (e.g., approximately 125 μL final volume per well).
Where [3] appears, read: 120 h, NCI-H1975 cell proliferation, approximately 5 days, read-out: H1975 IC50.

SMILES strings stand for the structures. Read-outs that look alike come from different tables or passages of the source.

Chain of SOS1 (Q07889 564-1049): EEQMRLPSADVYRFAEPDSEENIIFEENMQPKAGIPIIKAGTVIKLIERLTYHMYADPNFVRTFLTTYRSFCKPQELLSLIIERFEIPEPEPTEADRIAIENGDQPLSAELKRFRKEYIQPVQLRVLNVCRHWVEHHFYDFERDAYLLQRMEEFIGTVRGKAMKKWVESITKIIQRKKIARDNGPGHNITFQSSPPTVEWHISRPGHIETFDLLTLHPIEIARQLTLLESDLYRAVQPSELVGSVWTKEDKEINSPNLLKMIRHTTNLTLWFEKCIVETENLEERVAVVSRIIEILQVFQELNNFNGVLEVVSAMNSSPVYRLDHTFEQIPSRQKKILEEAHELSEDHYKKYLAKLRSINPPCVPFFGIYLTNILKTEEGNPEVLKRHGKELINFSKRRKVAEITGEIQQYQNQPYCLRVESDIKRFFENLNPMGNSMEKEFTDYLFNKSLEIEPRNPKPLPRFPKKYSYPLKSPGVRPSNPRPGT

One may read the IC50 as the midpoint of a concentration-inhibition curve. As for `C[C@H]1Nc2ncnc3c2cc(C2(C#N)CCS(=O)(=O)CC2)c(=O)n3CCCCCCN2CC(CCC(F)(F)c3cccc1c3)C2` [Compound 213, 4-((3R)-5,5-difluoro-3-methyl-1^7-oxo-1^7,1^8-dihydro-2-aza-1(4,8)-pyrido[2,3-d]pyrimidina-8(3,1)-azetidina-4(1,3)-benzenacyclotetradecaphane-1^6-yl)tetrahydro-2H-thiopyran-4-carbonitrile 1,1-dioxide], the IC50 in experiment [1] (read-out: IC50 value against SOS1) was below 50 nM; in experiment [1] (read-out: SOS1 IC50), below 100 nM; in experiment [2] (setting [3]) it was below 1000 nM; in experiment [2] (NCI-H1975, EGFR T790M L858R double mutation, read-out: IC50 in inhibiting growth of NCI-H1975 cell line), below 500 nM.

Turning to `Cc1nc2c3cc(C4(C#N)CC4)c(=O)n(c3n1)CCCCCOCC(F)(F)c1cccc(c1F)[C@@H](C)N2` [Compound 88, 1-((3R)-4^2,5,5-trifluoro-1^2,3-dimethyl-1^7-oxo-1^7,1^8-dihydro-7-oxa-2-aza-1(4,8)-pyrido[2,3-d]pyrimidina-4(1,3)-benzenacyclododecaphane-1^6-yl)cyclopropane-1-carbonitrile], the IC50 in experiment [1] (read-out: SOS1 IC50) is 100 to 5000 nM; in experiment [2] (setting [3]) it was above 10000 nM.

For the molecule `C[C@H]1Nc2ncnc3c2cc(C2(C#N)CCS(=O)(=O)CC2)c(=O)n3CCCOCCCCN2CCC(CC2)C(F)(F)c2cccc1c2` [Compound 127, 4-((4R)-2,2-difluoro-4-methyl-6^7-oxo-6^7,6^8-dihydro-10-oxa-5-aza-6(4,8)-pyrido[2,3-d]pyrimidina-1(4,1)-piperidina-3(1,3)-benzenacyclotetradecaphane-6^6-yl)tetrahydro-2H-thiopyran-4-carbonitrile 1,1-dioxide], the values for the IC50 in experiment [1] (read-out: SOS1 IC50) and in experiment [2] (setting [3]) were below 100 nM and below 1000 nM, respectively.

With `C[C@H]1Nc2ncnc3c2cc(C2CCS(=O)(=O)CC2)c(=O)n3CCCCNC(=O)CN2CCC(CC2)C(F)(F)c2cccc1c2` [Compound 118, (4R)-6^6-(1,1-dioxidotetrahydro-2H-thiopyran-4-yl)-2,2-difluoro-4-methyl-6^7,6^8-dihydro-5,11-diaza-6(4,8)-pyrido[2,3-d]pyrimidina-1(4,1)-piperidina-3(1,3)-benzenacyclotridecaphane-6^7,12-dione], the IC50 was below 100 nM in experiment [1] (read-out: SOS1 IC50) and below 1000 nM in experiment [2] (setting [3]).

In the case of `COc1nnc2c3cc(C4CCS(=O)(=O)CC4)c(nc13)OCCCCCCCN1CCC(CC1)C(F)(F)c1cccc(c1F)[C@@H](C)N2` [Compound 177, (R)-4-(3^2,2,2-trifluoro-6^8-methoxy-4-methyl-7-oxa-5-aza-6(5,2)-pyrido[2,3-d]pyridazina-1(4,1)-piperidina-3(1,3)-benzenacyclotetradecaphane-6^3-yl)tetrahydro-2H-thiopyran 1,1-dioxide], the figures for the IC50 in experiment [1] (read-out: SOS1 IC50) and in experiment [2] (setting [3]) were below 100 nM and below 1000 nM, respectively.

On to `C[C@H]1Nc2ncnc3c2cc(C2(C#N)CC2)c(=O)n3CCCCn2cc(nn2)CN2CCC(CC2)C(F)(F)c2cccc1c2` [Compound 94, 1-((6R,Z)-4,4-difluoro-6-methyl-8^7-oxo-8^7,8^8-dihydro-1^1H-7-aza-8(4,8)-pyrido[2,3-d]pyrimidina-3(1,4)-piperidina-1(4,1)-triazola-5(1,3)-benzenacyclododecaphane-8^6-yl)cyclopropane-1-carbonitrile], for which the concentration for half-maximal inhibition (IC50) in experiment [1] (read-out: SOS1 IC50) is below 100 nM; in experiment [2] (setting [3]), below 1000 nM.

With `C[C@H]1Nc2ncnc3c2cc(C2(C#N)CCS(=O)(=O)CC2)c(=O)n3CCCCCN2CCC(CC2)CCC(F)(F)c2cccc1c2` [Compound 8, 4-((3R)-5,5-difluoro-3-methyl-1^7-oxo-1^7,1^8-dihydro-2-aza-1(4,8)-pyrido[2,3-d]pyrimidina-8(4,1)-piperidina-4(1,3)-benzenacyclotridecaphane-1^6-yl)tetrahydro-2H-thiopyran-4-carbonitrile 1,1-dioxide], the concentration for half-maximal inhibition (IC50) was below 100 nM in experiment [1] (read-out: SOS1 IC50) and below 1000 nM in experiment [2] (setting [3]).
